Results reported in US8580852B2, “2-oxamide inhibitors of phospholipase A2 activity and cellular arachidonate release based on dipeptides and pseudopeptides” (The Regents of the University of California, priority 2009, dated 2013).
Several values for one entry are separate records, joined by “and”; a condition that tells them apart may be missing. Equal entries are not always repeated.

What follows are compounds tested against T1, GVIA iPLA2 (Homo sapiens, UniProt O60733) (assay: In vitro PLA2 mixed micellar assay (modified Dole assay), GVIA iPLA2). Settings: at 0.091 mole fraction of inhibitor, n = 3.
T1 sequence (O60733 1-806): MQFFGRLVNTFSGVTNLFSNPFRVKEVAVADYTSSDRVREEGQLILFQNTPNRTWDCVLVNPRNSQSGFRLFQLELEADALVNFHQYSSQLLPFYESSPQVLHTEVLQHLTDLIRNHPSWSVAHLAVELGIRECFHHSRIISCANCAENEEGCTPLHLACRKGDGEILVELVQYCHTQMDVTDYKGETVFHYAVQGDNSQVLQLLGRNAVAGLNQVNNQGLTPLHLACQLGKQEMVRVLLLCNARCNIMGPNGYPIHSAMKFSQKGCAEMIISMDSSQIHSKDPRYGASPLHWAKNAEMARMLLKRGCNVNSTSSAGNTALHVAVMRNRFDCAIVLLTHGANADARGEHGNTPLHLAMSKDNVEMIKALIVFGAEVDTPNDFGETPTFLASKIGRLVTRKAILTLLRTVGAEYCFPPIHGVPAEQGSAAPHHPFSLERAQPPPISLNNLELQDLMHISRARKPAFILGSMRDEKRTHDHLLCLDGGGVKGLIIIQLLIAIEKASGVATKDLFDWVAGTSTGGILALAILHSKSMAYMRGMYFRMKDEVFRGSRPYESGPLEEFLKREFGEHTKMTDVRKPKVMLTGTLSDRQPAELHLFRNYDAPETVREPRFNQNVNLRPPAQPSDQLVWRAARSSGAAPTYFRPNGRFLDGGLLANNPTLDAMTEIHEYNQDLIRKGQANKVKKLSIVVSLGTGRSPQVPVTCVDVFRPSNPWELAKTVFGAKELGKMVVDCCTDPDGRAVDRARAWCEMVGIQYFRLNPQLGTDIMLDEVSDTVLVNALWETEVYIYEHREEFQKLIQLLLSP
Assay type: biochemical
Procedure: FIG. 3 illustrates the dose-response curves for 2-oxoamide inhibitors of GVIA iPLA2. Inhibition of the activity of human GVIA iPLA2 by inhibitors (a) 8a and (b) 13 was tested on mixed-micelles containing 100 μM PAPC and 400 μM Triton X-100. Inhibition curves were generated by Graphpad Prism using a non-linear regression (one-site binding model—hyperbola) to calculate the reported XI(50) values.
All the inhibitors synthesized in this work were tested for inhibition of GIVA cPLA2, GVIA iPLA2 and GV sPLA2 using mixed micellar assays. Details for the assays have been published previously. The results of the inhibition are presented in Table 1 using either percent inhibition or XI(50) values. Initially, the percent inhibition of each PLA2 at 0.091 mole fraction of inhibitor was determined. XI(50) values were estimated when the percent inhibition was higher than 90%. The XI(50) is the mole fraction of the inhibitor in the total substrate interface required to inhibit the enzyme by 50%. Data for the reference 2-oxoamide inhibitors AX006 and AX048 are included in Table 1 for comparison.
Phospholipase A2 activity was determined using the previously described modified Dole assay with buffer and substrate conditions optimized for each enzyme as described previously: (i) GIVA cPLA2 substrate mixed-micelles were composed of 400 μM Triton X-100, 97 μM PAPC, 1.8 μM ^14C-labeled PAPC, and 3 μM PIP2 in buffer containing 100 mM HEPES pH 7.5, 90 μM CaCl2, 2 mM DTT and 0.1 mg/ml BSA; (ii) GVI iPLA2 substrate mixed-micelles were composed of either (a) 400 μM Triton X-100, 99 μM DPPC, and 1.5 μM ^14C-labeled DPPC in buffer containing 200 mM HEPES pH 7.0, 1 mM ATP, 2 mM DTT and 0.1 mg/ml BSA or (b) 400 μM Triton X-100, 98.3 μM PAPC, and 1.7 μM ^14C-labeled PAPC in buffer containing 100 mM HEPES pH 7.5, 2 mM ATP and 4 mM DTT; and (iii) GV sPLA2 substrate mixed-micelles were composed of 400 μM Triton X-100, 99 μM DPPC, and 1.5 μM ^14C-labeled DPPC in buffer containing 50 mM Tris pH 8.0 and 5 mM CaCl2.
Initial screening of compounds at 0.091 mole fraction inhibitor in mixed-micelles was carried out. Compounds displaying 25% or less inhibition had no inhibitory affect (designated N.D.). The average percent inhibition (and standard error, n=3) for compounds displaying more than 25% and less than 90% enzyme inhibition is reported herein. If the percent inhibition was greater than 90%, then its XI(50) was determined by plotting percent inhibition vs. inhibitor molar fraction (7 points; typically 0.005 to 0.091 mole fraction). Inhibition curves were modeled in Graphpad Prism using either a linear (x, y intercept=0) or non-linear regression (one-site binding model—hyperbola, BMAX=100) to calculate the reported XI(50) and associated error values.

Row | Compound | GVIA iPLA2 % inhibition
1 | CCCCCCCCCCCCCCC(=O)C(=O)N[C@@H](CCCC)C(=O)NCC(=O)O [Compound 9a, (S)-2-(2-(2-Oxohexadecanamido)hexanamido)acetic Acid] | N.D.^a (N.D. signifies compounds with less than 25% inhibition (or no detectable inhibition).)
2 | CCCCCCCCCCCCCCC(=O)C(=O)N[C@H](C(=O)NCC(=O)OC)C(C)C [Compound 4b, (S)-Methyl-2-(3-methyl-2-(2-oxohexadecanamido)butanamido)-acetate] | N.D.^a (N.D. signifies compounds with less than 25% inhibition (or no detectable inhibition).)
3 | CCCCCCCCCCCCCCC(=O)C(=O)N[C@@H](CCCC)COCC(=O)OC(C)(C)C [Compound 17, (S)-tert-Butyl 2-(2-(2-oxohexadecanamido)hexyloxy)acetate] | 81%
4 | CCCCCCCCCCCCCCC(=O)C(=O)N[C@@H](CCCC)COCC(=O)O [Compound 18, (S)-2-(2-(2-oxohexadecanainido)hexyloxy)acetic Acid] | N.D.^a (N.D. signifies compounds with less than 25% inhibition (or no detectable inhibition).)
5 | CCCCCCCCCCCCCCC(=O)C(=O)N[C@H](C(=O)NCC(=O)O)C(C)C [Compound 9b, (S)-2-(3-Methyl-2-(2-oxohexadecanamido)butanamido)acetic Acid] | N.D.^a (N.D. signifies compounds with less than 25% inhibition (or no detectable inhibition).)

Same assay, conditions: mixed micelles; mole fraction of inhibitor in total substrate interface required to inhibit the enzyme by 50%

Row | Compound | GVIA iPLA2 X1(50)
6 | CCCCCCCCCCCCCCC(=O)C(=O)N[C@@H](CCCC)C(=O)NCC(=O)OC(C)(C)C [Compound 8a, (S)-tert-Butyl 2-(2-(2-oxohexadecanamido)hexanamido)acetate] | 0.011 mole fraction and 0.011 ± 0.001 mole fraction
7 | CCCCCCCCCCCCCCC(=O)C(=O)N[C@@H](CCCC)COCC(=O)OCC [Compound 13, (S)-Ethyl 2-(2-(2-oxohexadecanamido)hexyloxy)acetate] | 0.017 mole fraction and 0.017 ± 0.002 mole fraction
8 | CCCCCCCCCCCCCCC(=O)C(=O)N[C@H](C(=O)NCC(=O)OC(C)(C)C)C(C)C [Compound 8b, (S)-tert-Butyl-2-(3-methyl-2-(2-oxohexadecanamido)butanamido)-acetate] | 0.044 ± 0.025 mole fraction
9 | CCCCCCCCCCCCCCC(=O)C(=O)N[C@@H](CCCC)C(=O)NCC(=O)OCC [Compound 4c, (S)-Ethyl 2-(2-(2-oxohexadecanamido)hexanamido)acetate] | 0.020 mole fraction and 0.020 ± 0.002 mole fraction
10 | CCCCCCCCCCCCCCC(=O)C(=O)N[C@@H](CCCC)C(=O)NCC(=O)OC [Compound 4a, (S)-Methyl 2-(2-(2-oxohexadecanamido)hexanamido)acetate] | 0.045 ± 0.018 mole fraction
